Test results: patent publication US12624038B2, “Molecules and methods related to treatment of uncontrolled cellular proliferation” (ST. JUDE CHILDREN'S RESEARCH HOSPITAL, priority 2019, dated 2026)
Where two headings read alike, the source gives them in different places.

Experiments:
[1] = biological target: T1, JAK3 (Homo sapiens, UniProt P52333); assay: KdELECT Kd measurement (KINOMEscan platform), JAK3; type: binding; design: purchased Eurofins DiscoveRx; conditions: read-out: Kd to JAK family kinases, JAK3
T1 sequence (P52333 1-1124): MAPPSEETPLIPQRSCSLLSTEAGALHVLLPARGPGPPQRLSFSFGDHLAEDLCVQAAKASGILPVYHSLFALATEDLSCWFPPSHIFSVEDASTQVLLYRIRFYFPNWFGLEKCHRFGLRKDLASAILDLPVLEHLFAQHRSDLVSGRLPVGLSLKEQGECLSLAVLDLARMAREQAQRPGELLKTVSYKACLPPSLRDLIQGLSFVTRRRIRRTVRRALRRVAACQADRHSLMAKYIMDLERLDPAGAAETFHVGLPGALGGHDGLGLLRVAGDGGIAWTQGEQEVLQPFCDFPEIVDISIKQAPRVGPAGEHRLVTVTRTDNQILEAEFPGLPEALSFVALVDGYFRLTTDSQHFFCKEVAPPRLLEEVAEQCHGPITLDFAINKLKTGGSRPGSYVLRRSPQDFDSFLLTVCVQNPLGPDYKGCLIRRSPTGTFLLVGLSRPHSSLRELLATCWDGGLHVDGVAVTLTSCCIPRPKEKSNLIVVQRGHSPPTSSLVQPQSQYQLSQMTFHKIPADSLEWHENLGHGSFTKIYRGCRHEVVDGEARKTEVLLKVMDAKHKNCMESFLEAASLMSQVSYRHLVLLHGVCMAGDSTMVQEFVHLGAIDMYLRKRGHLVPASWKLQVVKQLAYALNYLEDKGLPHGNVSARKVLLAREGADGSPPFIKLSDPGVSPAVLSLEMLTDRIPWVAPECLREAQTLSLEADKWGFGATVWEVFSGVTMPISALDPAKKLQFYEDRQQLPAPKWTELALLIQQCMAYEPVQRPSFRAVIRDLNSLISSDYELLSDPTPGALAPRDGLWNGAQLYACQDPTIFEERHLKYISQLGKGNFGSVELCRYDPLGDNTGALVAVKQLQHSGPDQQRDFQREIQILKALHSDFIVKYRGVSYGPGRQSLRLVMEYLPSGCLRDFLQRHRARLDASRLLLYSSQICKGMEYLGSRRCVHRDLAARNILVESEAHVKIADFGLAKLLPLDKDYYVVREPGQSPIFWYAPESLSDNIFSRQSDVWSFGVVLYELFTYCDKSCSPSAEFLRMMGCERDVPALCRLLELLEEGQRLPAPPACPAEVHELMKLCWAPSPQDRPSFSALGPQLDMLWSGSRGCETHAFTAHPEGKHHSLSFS

[2] = biological target: T1, JAK3; assay: Target degradation (Western Blot) in MHH-CALL-4 cells, JAK3; type: cell-based; design: endogenous in cells; host or cells: MHH-CALL-4; conditions: 100 nM PROTAC at 24 h
Protocol: (§1) Cells were washed twice with ice-cold PBS and lysed in RIPA lysis buffer (Sigma) freshly supplemented with Halt™ Protease Inhibitor Cocktail (ThermoFisher) for 15 minutes on ice. The cell pellet was removed by centrifugation at 13,000 g at 4° C. for 15 minutes. Protein concentration was measured by BCA assay (Thermo Fisher Scientific). Proteins were denatured in NuPAGE LDS 4× sample buffer supplemented with reducing agents (Invitrogen). Typically, 10-20 μg of total protein was loaded per lane on a 4%-12% NuPAGE Bis-Tris gradient gel (Invitrogen) and analyzed by standard immunoblotting and imaged using Li-COR Odyssey CLx (LI-COR Biotechnology, Lincoln, NE). Primary antibodies used were: JAK1 (Cell Signaling #3332S), JAK2 (#3230S), JAK3 (#8827S), TYK2 (#9312S), GSPT1 (#14980S), CRBN (#71810S), IKZF1 (Santa Cruz Biotechnology, SC-398265) and ACBT (Santa Cruz Biotechnology, SC-47778).

[3] = biological target: T2, TYK2 (Homo sapiens, UniProt P29597); assay: KdELECT Kd measurement (KINOMEscan platform), TYK2; type: binding; design: purchased Eurofins DiscoveRx; conditions: read-out: Kd to JAK family kinases, TYK2
T2 sequence (P29597 whole entry): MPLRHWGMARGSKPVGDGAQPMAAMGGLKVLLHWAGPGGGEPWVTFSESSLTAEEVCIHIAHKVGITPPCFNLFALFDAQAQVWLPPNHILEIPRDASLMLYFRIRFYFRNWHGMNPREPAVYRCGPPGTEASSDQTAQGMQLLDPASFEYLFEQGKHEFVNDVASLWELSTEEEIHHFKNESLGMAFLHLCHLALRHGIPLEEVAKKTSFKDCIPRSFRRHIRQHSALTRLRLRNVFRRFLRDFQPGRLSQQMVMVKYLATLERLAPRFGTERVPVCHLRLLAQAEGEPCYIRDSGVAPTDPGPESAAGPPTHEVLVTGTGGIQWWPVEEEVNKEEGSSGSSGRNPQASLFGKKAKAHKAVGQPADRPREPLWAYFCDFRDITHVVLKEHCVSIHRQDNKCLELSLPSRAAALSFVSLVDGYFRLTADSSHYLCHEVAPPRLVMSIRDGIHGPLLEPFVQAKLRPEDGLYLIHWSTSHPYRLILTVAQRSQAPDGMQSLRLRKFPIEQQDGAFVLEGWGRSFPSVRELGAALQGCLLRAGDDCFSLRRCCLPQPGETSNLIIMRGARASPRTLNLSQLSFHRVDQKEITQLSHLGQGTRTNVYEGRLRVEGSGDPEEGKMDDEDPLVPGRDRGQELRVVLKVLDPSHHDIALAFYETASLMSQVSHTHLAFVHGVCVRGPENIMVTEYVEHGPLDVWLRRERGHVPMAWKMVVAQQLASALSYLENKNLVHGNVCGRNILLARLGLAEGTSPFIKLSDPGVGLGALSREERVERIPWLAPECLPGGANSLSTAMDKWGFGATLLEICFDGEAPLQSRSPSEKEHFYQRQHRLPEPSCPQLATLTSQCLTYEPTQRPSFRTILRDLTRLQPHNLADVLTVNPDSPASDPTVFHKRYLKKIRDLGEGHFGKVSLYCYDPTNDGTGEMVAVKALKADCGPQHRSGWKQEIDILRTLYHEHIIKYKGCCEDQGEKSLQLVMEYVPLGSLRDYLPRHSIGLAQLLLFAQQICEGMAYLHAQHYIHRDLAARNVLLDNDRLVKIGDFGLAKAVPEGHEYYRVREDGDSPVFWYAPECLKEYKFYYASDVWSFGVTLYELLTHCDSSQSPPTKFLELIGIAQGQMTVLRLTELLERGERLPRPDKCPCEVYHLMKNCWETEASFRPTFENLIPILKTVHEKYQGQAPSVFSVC

[4] = system: JAK-STAT5 signaling pathway; assay: Phosphoflow analysis of JAK-STAT5 signaling in MHH-CALL-4 cells; type: cell-based, human; conditions: 1 μM for one hour before stimulation with or without TSLP 25 ng/mL, 30 minutes
[5] = system: MHH-CALL-4; assay: Cytotoxicity assay (resazurin, 72 hours) in MHH-CALL-4 cells; type: cell-based, human; conditions: for EC50: Homo sapiens
[6] = biological target: T2, TYK2; assay: Target degradation (Western Blot) in MHH-CALL-4 cells, TYK2; type: cell-based; design: endogenous in cells; host or cells: MHH-CALL-4; conditions: 100 nM PROTAC at 24 h
Protocol: as §1

[7] = MHHCALL4, MHH-CALL-4 (Table 1), read-out: EC50
[8] = MHHCALL4, MHH-CALL-4 (Table 2), read-out: EC50 in MHH-CALL-4
[9] = MHHCALL4, Table 6, no star, read-out: MHHCALL4 EC50

SMILES	Kd [1]	Target Degradation (Western Blot) JAK3 [2]	Kd [3]	JAK inhibition by phosphoflow cytometry [4]	EC50 [5, 7]	EC50 [5, 8]	EC50 [5, 9]	Target Degradation (Western Blot) TYK2 [6]	EC50 ([5]; MHHCALL4, read-out: EC50 in MHH-CALL-4)	EC50 ([5]; MHHCALL4, read-out: MHHCALL4 EC50)	activity in CRLF2r MHH-CALL-4 cells compared to each of the parent compounds, ruxolitinib and pomalidomide [5]	cytotoxicity assay in MHH-CALL-4 cells, comparison ([5]; FIG. 6B)	EC50 ([5]; MHHCALL4, read-out: EC50 in MHH-CALL-4 + lenalidomide (30 μM), co-treatment with lenalidomide 30 μM)	activity on co-treatment with lenalidomide ([5]; co-treatment with 30 μM of lenalidomide)
N#CC[C@H](C1CCCC1)n1cc(-c2nc(Nc3ccc(C(=O)NCCCCNc4cccc5c4C(=O)N(C4CCC(=O)NC4=O)C5=O)cc3)nc3[nH]ccc23)cn1 (stereo partly drawn) [Compound 5]	2.9 nM	2 (2 = Medium (20-40% degradation at 24 h))	1.7 nM	comparable JAK inhibition	3.9 nM	1.2 nM	1.2 nM	2 (2 = Medium (20-40% degradation at 24 h))						
CCS(=O)(=O)N1CC(CC#N)(n2cc(-c3nc(Nc4ccc(C(=O)NCCCCNc5cccc6c5C(=O)N(C5CCC(=O)NC5=O)C6=O)cc4)nc4[nH]ccc34)cn2)C1 (stereo not drawn) [Compound 6]	0.35 nM	2 (2 = Medium (20-40% degradation at 24 h))	0.25 nM	comparable JAK inhibition				2 (2 = Medium (20-40% degradation at 24 h))	1.86 nM	1.86 nM				
CCCn1cc(-c2nc(Nc3ccc(C(=O)NCCCCNc4cccc5c4C(=O)N(C4CCC(=O)NC4=O)C5=O)cc3)nc3[nH]ccc23)cn1 (stereo not drawn) [Compound 7]	1.4 nM	3 (3 = Strong (>60% degradation at 24 h))	0.54 nM	comparable JAK inhibition	0.2 nM	0.16 nM	0.15 nM	2 (2 = Medium (20-40% degradation at 24 h))			greater than 70,000 fold	outcompeted Ruxolitinib and pomalidomide	> 57 nM	abolished
